Test results published in patent publication US20260166082A1, “METHODS OF TREATMENT WITH T CELL THERAPY AND IMMUNOMODULATORY AGENT MAINTENANCE THERAPY” (Celgene Corporation, priority 2022, published 2026).

Experiments:
[1] = test system: minimal residual disease; assay: Example 1: MRD negativity by next-generation sequencing and EuroFlow; format: in vivo, human; conditions: subjects on lenalidomide maintenance after anti-BCMA CAR-T cells, subsequent analysis
Experimental: Exploratory endpoints, which included assessment of biomarkers (serum level of soluble BCMA (sBCMA) and inflammatory cytokines) by Luminex assay and minimal residual disease negativity (MRD−) by using aggregation of next-generation sequencing and 8-color flow cytometry (EuroFlow; sensitivity <10^−5 nucleated cells) data with interpolation to reduce missing/indeterminate data points. sBCMA levels were evaluated at leukapheresis; baseline; days 1, 4, and 8; and until disease progression. Plasma levels of immune-related inflammatory cytokines (interferon-γ (IFNγ), interleukin-6 (IL-6), interleukin-8 (IL-8) and interleukin-10 (IL-10)) were evaluated at leukapheresis; baseline; days 1-8, 10, 12, 15 18 and 22; and months 2 and 4. Efficacy and safety were analyzed in all subjects who received anti-BCMA CAR-T cells. PK, sBCMA, and MRD-were analyzed in evaluable subjects.

[2] = test system: patients with multiple myeloma following ASCT; conditions: maintenance with lenalidomide following ASCT; 22.1 months follow up; cited from earlier work

Nc1cccc2c1CN(C1CCC(=O)NC1=O)C2=O (centres unmarked) [lenalidomide, 3-(4-amino-1-oxo-1,3-dihydro-2H-isoindol-2-yl) piperidine-2,6-dione]
MRD-negativity maintained at 36 months ([1]; 2/3 evaluable): 66.7%
MRD-negativity maintained at 12 months ([1]; 4/6 evaluable): 66.7%
MRD-negativity maintained at 24 months ([1]; 4/6 evaluable): 66.7%
complete response rate [2]: 60.9%
patients achieving minimal residual disease negativity [2]: 20.4
